Test results: US9238019B2, “Antitussive and bronchodilator uses for enaminone ester” (UNIVERSITY OF KUWAIT, priority 2006, dated 2016)

Assays:
Solid-state stability = assay type: physicochemical; conditions: room temperature
guinea pigs [1] = assay: Airway obstruction (enhanced pause, Penh) during citric acid aerosol exposure; assay type: in vivo, guinea pig; conditions: 100 mg/kg in DMSO intraperitoneally; citric acid (0.6 M) aerosol; vs vehicle group; FIG. 3
Protocol: (§1) In order to test the effectiveness of enaminone ester E121 as an antitussive, two groups of guinea pigs were established. Group 1 was a control group, which consisted of ten guinea pigs, who were administered vehicle only (100% dimethyl sulfoxide [DMSO]) intraperitoneally. Group 2 was a test group, which consisted of ten guinea pigs, who were administered enaminone E121 (100 mg/kg in DMSO) intraperitoneally (i.e., via intraperitoneal injection). Each group was separately placed in a transparent whole body plythesmography box (Buxco, Troy, N.Y.) for testing one hour after administration of the vehicle or the enaminone ester E121, respectively.
(§2) Each group was allowed a settling period in the whole body plethysmograph, after which baseline airway function was recorded for 2 minutes before administration of an aerosol. Animals in each group were then exposed to citric acid (0.6 M) aerosol for 10 minutes, during which cough and airway function were recorded, and for an additional 5 minutes thereafter (a total of 15 minutes). […]
The pressure differences between the main chamber of the whole body plethysmograph containing the animals and a reference chamber (box pressure signal) were measured. […]

[2] = system: guinea pig bronchial preparations pre-contracted with carbachol; assay: Agonist-induced relaxation of guinea pig bronchial ring preparations pre-contracted with carbachol; conditions: concentration response curves repeated after one hour; compared with salbutamol
Protocol: Two groups of guinea pigs, each group containing twelve guinea pigs, were decapitated under light ether anesthesia and the tracheas were dissected out with the lungs en bloc. The origin of bifurcation of the trachea into bronchioles was identified after removal of the excess connective tissue. The isolated bronchioles were cut into ring segments of 4 mm in length. The preparations were mounted in organ baths containing 25 mL Krebs-Henseleit (KH) solution at pH 7.4, maintained at 37° C. and aerated with a 95% O2 and 5% CO2 mixture. The preparations were left to stabilize for 45 minutes, changing the KH solution at 15-minute intervals. A pre-tension of 0.75 gm was applied, and a stabilization period of 45 minutes was allowed until a stable baseline tone was obtained. Isolated segments of the bronchioles were pre-contracted with carbachol (3 μM). Responses of the carbachol pre-contracted bronchial ring segments to the different agonists were determined by measurement of changes in the isometric tension, using computerized automatic organ bath analyzing instruments.
Bronchodilator responses to salbutamol (10^−9-3×10^−4 M) and enaminone ester E121 (10^−9-10^−4 M) were investigated on different preparations of the bronchioles. […] The bronchodilator responses were expressed as a percentage reduction of the carbachol induced pre-contraction. […]

guinea pigs [3] = assay: Citric acid-induced cough in conscious guinea pigs (whole body plethysmography); assay type: in vivo, guinea pig; conditions: 100 mg/kg in DMSO intraperitoneally, 1 h before citric acid (0.6 M) aerosol; coughs counted over 15 min; vs vehicle group; FIG. 2
Protocol: as §1
as §2, with “minutes). The aerosols were generated using a DeVilbiss aerogen ultrasonic nebulizer (DeVilbiss, Somerset, Pa.), the nebulized spray having an aerodynamic mass median diameter droplet size range of […] (manufacturer's indication).” for “minutes).”
Coughs were recorded from conscious, unrestrained guinea pigs manually by a trained observer as confirmation. […]

stability of the solid (Solid-state stability): stable solid at room temperature
Structure (SMILES): CCOC(=O)C1C(=O)C=C(Nc2ccc(Cl)cc2)CC1C (stereo not shown) [enaminone E121, ethyl 4-[(4-chlorophenyl)amino]-6-methyl-2-oxocyclohex-3-en-1-oate]
enhanced pause (Penh), bronchoconstriction or airway obstruction (guinea pigs [1]): less bronchoconstriction or airway obstruction | tachyphylaxis of airway smooth muscle relaxant effect [2]: lower levels of tachyphalaxis than salbutamol | number of coughs (guinea pigs [3]): substantially lower incidence of coughs
